According to EPA's CvTdb concentration-time database:

Legend:
Test in all cases: concentration in plasma after dosing
[1] = test system: Rat; details: dosed: 1-Chloro-2-propanol, 7.5 mg/kg, oral, Female, F344
[2] = test system: Rat; details: dosed: 1-Chloro-2-propanol, 7.5 mg/kg, oral, Male, F344
[3] = test system: Rat; details: 0.5 h; dosed: 1-Chloro-2-propanol; 7.5 mg/kg; oral; Female; F344
[4] = test system: Rat; details: dosed: 1-Chloro-2-propanol, 7.5 mg/kg, oral, Male, F344; remark: listed apart in the source
[5] = test system: Rat; details: dosed: 1-Chloro-2-propanol, 7.5 mg/kg, oral, Male, F344; remark: listed apart in the source
[6] = test system: Rat; details: dosed: 1-Chloro-2-propanol, 15 mg/kg, oral, Male, F344
[7] = test system: Rat; details: dosed: 1-Chloro-2-propanol, 15 mg/kg, oral, Female, Harlan Sprague-Dawley
[8] = test system: Rat; details: 20 min; dosed: 1-Chloro-2-propanol; 7.5 mg/kg; oral; Female; F344
[9] = test system: Rat; details: dosed: 1-Chloro-2-propanol, 15 mg/kg, oral, Female, Harlan Sprague-Dawley; remark: listed apart in the source
[10] = test system: Rat; details: dosed: 1-Chloro-2-propanol, 15 mg/kg, oral, Female, F344
[11] = test system: Rat; details: dosed: 1-Chloro-2-propanol, 15 mg/kg, oral, Female, F344; remark: listed apart in the source
[12] = test system: Rat; details: 40 min; dosed: 1-Chloro-2-propanol; 7.5 mg/kg; oral; Male; F344
[13] = test system: Rat; details: dosed: 1-Chloro-2-propanol, 7.5 mg/kg, oral, Male, F344; remark: listed apart in the source
[14] = test system: Rat; details: dosed: 1-Chloro-2-propanol, 7.5 mg/kg, oral, Female, F344; remark: listed apart in the source
[15] = test system: Rat; details: 10 min; dosed: 1-Chloro-2-propanol; 7.5 mg/kg; oral; Female; F344
[16] = test system: Rat; details: dosed: 1-Chloro-2-propanol, 15 mg/kg, oral, Male, F344; remark: listed apart in the source
[17] = test system: Rat; details: dosed: 1-Chloro-2-propanol, 7.5 mg/kg, oral, Male, F344; remark: listed apart in the source
[18] = test system: Rat; details: dosed: 1-Chloro-2-propanol, 15 mg/kg, oral, Male, F344; remark: listed apart in the source
[19] = test system: Rat; details: dosed: 1-Chloro-2-propanol, 7.5 mg/kg, oral, Male, F344; remark: listed apart in the source
[20] = test system: Rat; details: dosed: 1-Chloro-2-propanol, 15 mg/kg, oral, Male, F344; remark: listed apart in the source
[21] = test system: Rat; details: dosed: 1-Chloro-2-propanol, 7.5 mg/kg, oral, Female, F344; remark: listed apart in the source
[22] = test system: Rat; details: dosed: 1-Chloro-2-propanol, oral
[23] = test system: Rat; details: dosed: 1-Chloro-2-propanol, 15 mg/kg, oral, Female, F344; remark: listed apart in the source
[24] = test system: Rat; details: dosed: 1-Chloro-2-propanol, 15 mg/kg, oral, Female, Harlan Sprague-Dawley; remark: listed apart in the source
[25] = test system: Rat; details: 40 min; dosed: 1-Chloro-2-propanol; 15 mg/kg; oral; Male; F344
[26] = test system: Rat; details: dosed: 1-Chloro-2-propanol, 15 mg/kg, oral, Female, F344; remark: listed apart in the source
[27] = test system: Rat; details: dosed: 1-Chloro-2-propanol, 7.5 mg/kg, oral, Male, F344; remark: listed apart in the source
[28] = test system: Rat; details: dosed: 1-Chloro-2-propanol, 15 mg/kg, oral, Female, Harlan Sprague-Dawley; remark: listed apart in the source
[29] = test system: Rat; details: 0.5 h; dosed: 1-Chloro-2-propanol; 7.5 mg/kg; oral; Female; F344; remark: listed apart in the source
[30] = test system: Rat; details: dosed: 1-Chloro-2-propanol, 7.5 mg/kg, oral, Female, F344; remark: listed apart in the source

CC(O)CCl (stereo not drawn) [1-Chloro-2-propanol]
Details	concentration in plasma [ng/mL]
[1], 1.5 h	81
[1], 20 min	740
[2], 0.5 h	1040
[2], 2 h	75
[4], 0.5 h	1360
[4], 2 h	56
[5], 1.5 h	108
[5], 20 min	1270
[6], 1 h	940
[6], 5 min	6120
[7], 0.5 h	3970
[7], 2.5 h	79
[9], 1.5 h	354
[9], 20 min	6300
[10], 1 h	897
[10], 5 min	4660
[11], 2 h	112
[11], 10 min	4730
[13], 1 h	393
[13], 10 min	900
[14], 1 h	133
[14], 10 min	1260
[16], 2 h	131
[16], 10 min	6070
[17], 1 h	195
[17], 10 min	1400
[18], 1 h	1020
[18], 5 min	3020
[19], 1.5 h	144
[19], 20 min	960
[20], 2 h	203
[20], 10 min	6460
[21], 5 min	2360
[21], 40 min	720
[23], 2 h	72
[23], 10 min	6200
[24], 0.5 h	4680
[24], 2.5 h	71
[26], 1 h	630
[26], 5 min	6880
[27], 5 min	1600
[27], 40 min	750
[28], 1.5 h	780
[28], 20 min	4590
[30], 5 min	1170
[30], 40 min	213

Details	concentration in plasma [ng/mL]
[3]	740
[8]	830
[12]	810
[15]	1450
[25]	2740
[29]	730

concentration in plasma [ng/mL], [22]
Details	0.5 h	1 h	1.5 h	2 h	2.5 h	3 h	5 min	10 min	20 min	40 min
7.5 mg/kg, Female, F344	479	138	–	–	–	–	1920	1890	1660	534
7.5 mg/kg, Male, F344	740	334	117	70	–	–	1660	1830	1030	638
15 mg/kg, Female, F344	–	677	–	127	–	–	3360	3860	3180	–
15 mg/kg, Female, Harlan Sprague-Dawley	3270	–	768	–	69	59	–	–	3020	4110
15 mg/kg, Male, F344	–	920	–	159	–	107	1700	5370	–	3300
